Measurements published in patent US20240182460A1, “ALLOSTERIC CHROMENONE INHIBITORS OF PHOSPHOINOSITIDE 3-KINASE (PI3K) FOR THE TREATMENT OF DISEASE” (PETRA PHARMA CORPORATION, priority 2022, published 2024).

Key:
[1] = Metabolic stability and intrinsic clearance in human liver microsomes (MICS); type: in vitro ADME; details: human, microsomes, pH 7.4
Method: Metabolic Stability and Intrinsic Clearance in Liver Microsomes (MICS)
One objective of this assay is to measure in vitro metabolic stability of a test compound in liver microsomes of one or more different species. The concentration of a control compound in the reaction system is evaluated by LC/MS/MS for calculating intrinsic clearance of a test compound and estimating the stability of the control compound and test compound in liver microsomes of one or more different species.
Microsomes (MICS). Human Liver Microsomes (HLM), Monkey Liver Microsomes (MKLM), Dog Liver Microsomes (DLM), Rat Liver Microsomes (RLM), and Mouse Liver Microsomes (MLM) are obtained at a concentration of 20 mg/mL protein from commercial sources and stored in a −80° C. freezer. Prior to use, liver microsomes are removed from the freezer and allowed to thaw in a 37° C. water bath and then stored on wet ice.
Stock Solutions. Test Compound (TC) Stock Solutions are prepared in DMSO at a concentration of 10 mM and stored for later use. Positive Control (PC) Stock Solutions of verapamil·HCL (FW: 491.1 g/mol) in DMSO are prepared at a concentration of 10 mM (4.91 mg/mL), and stored at the condition same as the stock solutions of test compounds.
Phosphate Buffer. Phosphate Buffer (100 mM, pH 7.4) is prepared by combining a Solution A and a Solution B as follows.
To prepare Solution A, 7.098 g of disodium hydrogen phosphate was combined with 500 mL of pure water and sonicated to dissolve. To prepare the Solution B, 3.400 g of potassium dihydrogen phosphate was combined with 250 mL of pure water and sonicated to dissolve. Solution A was placed on a stirrer and Solution B was slowly added into Solution A until the pH reached 7.4.
NADPH Solution. A 10 mM NADPH Solution is prepared by dissolving NADPH (MW: 833.4 g/mol) at 8.334 mg/mL in phosphate buffer (100 mM, pH 7.4).
Microsome Master Solution. A Microsome Master Solution is prepared by adding 6.25 μL microsomes (20 mg/mL) to 216.25 μL Phosphate Buffer (100 mM). The final concentration is Phosphate Buffer (100 mM); microsomes (0.5 mg/mL).
Dilution of Stock Solutions. The TC Stock Solutions (10 mM in DMSO) and the PC Stock Solutions (10 mM in DMSO) are diluted by adding 3 μL of the TC Stock Solution or the PC Stock Solution to 297 μL of 50% acetonitrile/50% water.
Incubation. Two separated experiments were performed as follows. a) With Cofactors (NADPH): 25 μL of 10 mM NADPH was added to the incubations. The final concentrations of
microsomes and NADPH were 0.5 mg/mL and 1 mM, respectively. b) Without Cofactors (NADPH): 25 μL of 100 mM Phosphate buffer was added to the incubations. The final concentration of microsomes was 0.5 mg/mL. The mixture was pre-warmed at 37° C. for 10 minutes.
The reaction was started with the addition of 2.5 μL of 100 μM PC solution or TC solutions.
Verapamil was used as PC in this study. The final concentration of test compound or control compound was 1 μM. The incubation solution was incubated in water batch at 37° C.
Reaction Termination. Aliquots of 30 μL were taken from the reaction solution at 0.5, 5, 15, 30 and 60 minutes and added to plates. The reaction was stopped by the addition of 5 volumes of cold acetonitrile and a solution containing 100 nM alprazolam, 200 nM caffeine and 100 nM tolbutamide.
Sampling. The plates containing the terminated reactions were centrifuged at 4000 rpm for 30 minutes. Supernatant of each compound (40 μL) was transferred into a 96-well analysis plate.
Four compound samples are pooled together into one cassette and diluted by adding 160 μL of pure water. All incubations are performed in duplicate.
Analysis and Data Processing. Quantitative LC-MS analysis is performed, and peak areas are determined from extracted ion chromatograms. Percent parent remaining was calculated from peak area of TC or PC. The slope value, k, is determined by linear regression of the natural logarithm of percent parent remaining vs. incubation time curve. […]

[2] = target: PI3Kα E545K (Homo sapiens, UniProt P42336, E545K); assay: PI3Kα E545K mutant in vitro cell based assay, MDA-MB-361 cells; set-up: MDA-MB-361 (ATCC-HTB-27) cell line (PI3Kα E545K); host or cells: MDA-MB-361; details: MDA-MB-361 cell line, 0% FBS, no insulin, 3 hours treatment
PI3Kα E545K, sequence (P42336 whole entry E545K): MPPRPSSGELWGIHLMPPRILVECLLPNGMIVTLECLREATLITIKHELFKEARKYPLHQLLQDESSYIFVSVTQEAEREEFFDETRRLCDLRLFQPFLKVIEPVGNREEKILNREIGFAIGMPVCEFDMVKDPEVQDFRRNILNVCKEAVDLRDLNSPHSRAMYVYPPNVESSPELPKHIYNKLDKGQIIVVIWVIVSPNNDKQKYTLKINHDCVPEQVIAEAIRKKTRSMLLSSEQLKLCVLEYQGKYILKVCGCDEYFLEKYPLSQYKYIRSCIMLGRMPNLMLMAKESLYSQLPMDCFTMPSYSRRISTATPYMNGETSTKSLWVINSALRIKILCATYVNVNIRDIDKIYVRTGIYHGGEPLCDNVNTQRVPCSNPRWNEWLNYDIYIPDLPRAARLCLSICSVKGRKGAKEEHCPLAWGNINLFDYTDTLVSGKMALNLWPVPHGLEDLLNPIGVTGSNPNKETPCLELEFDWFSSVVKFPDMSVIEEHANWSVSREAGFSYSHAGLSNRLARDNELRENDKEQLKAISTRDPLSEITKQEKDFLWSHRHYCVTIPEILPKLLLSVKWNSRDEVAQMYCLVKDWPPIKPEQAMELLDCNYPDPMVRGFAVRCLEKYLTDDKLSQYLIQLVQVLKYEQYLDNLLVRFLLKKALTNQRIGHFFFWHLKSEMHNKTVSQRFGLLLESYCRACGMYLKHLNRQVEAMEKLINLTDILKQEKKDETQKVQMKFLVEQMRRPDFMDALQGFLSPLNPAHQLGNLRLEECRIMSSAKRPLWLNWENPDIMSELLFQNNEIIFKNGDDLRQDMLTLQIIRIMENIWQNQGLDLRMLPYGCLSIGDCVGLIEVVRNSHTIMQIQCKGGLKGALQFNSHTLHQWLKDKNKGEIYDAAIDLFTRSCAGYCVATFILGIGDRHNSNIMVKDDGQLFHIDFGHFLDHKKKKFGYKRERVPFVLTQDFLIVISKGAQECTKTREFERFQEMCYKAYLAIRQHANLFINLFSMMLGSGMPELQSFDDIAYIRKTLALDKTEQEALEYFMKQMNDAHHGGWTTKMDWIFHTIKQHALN
PI3Kα E545K, sequence (P27986 whole entry partner): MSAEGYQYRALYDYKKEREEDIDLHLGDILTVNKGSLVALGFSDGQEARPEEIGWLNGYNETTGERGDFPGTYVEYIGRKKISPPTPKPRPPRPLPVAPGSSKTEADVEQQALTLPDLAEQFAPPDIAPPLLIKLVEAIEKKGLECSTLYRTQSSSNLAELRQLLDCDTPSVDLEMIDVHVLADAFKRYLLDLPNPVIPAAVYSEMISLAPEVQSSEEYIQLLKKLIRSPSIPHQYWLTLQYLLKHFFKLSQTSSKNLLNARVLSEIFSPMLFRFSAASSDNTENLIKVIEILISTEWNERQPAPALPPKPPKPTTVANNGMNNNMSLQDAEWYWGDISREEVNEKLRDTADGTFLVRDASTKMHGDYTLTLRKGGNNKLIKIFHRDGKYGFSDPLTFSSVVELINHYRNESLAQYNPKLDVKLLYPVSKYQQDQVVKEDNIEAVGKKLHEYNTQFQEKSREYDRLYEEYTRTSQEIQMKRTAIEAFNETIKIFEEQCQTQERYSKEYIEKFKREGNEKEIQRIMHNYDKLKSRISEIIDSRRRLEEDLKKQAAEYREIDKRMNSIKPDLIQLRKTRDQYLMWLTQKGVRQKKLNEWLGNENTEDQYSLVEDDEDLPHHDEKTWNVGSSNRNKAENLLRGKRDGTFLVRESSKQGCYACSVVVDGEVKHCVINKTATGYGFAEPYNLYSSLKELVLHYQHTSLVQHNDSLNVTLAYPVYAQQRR
Text: PI3K-Alpha Kinase (PI3Kα) Activity: Wild-Type PI3Kα, H1047R Mutant PI3Kα, and E545K Mutant PI3Kα In Vitro Cell Based Assays and Determination of IC50 Values for Inhibitors
The MDA-MB-453 (ATCC-HTB-131) cell line (PI3Kα H1047R) and MCF-7 (ATCC-HTB-22) cell line (PI3Kα E545K), MDA-MB-361 (ATCC-HTB-27) cell line (PI3Kα E545K), and SKBR3 (ATCC-HTB-30) cell line (wild type PI3Kα) were obtained from the American Type Culture Collection (Manassas, VA). MDA-MB-453 cells were maintained in Dulbecco's Modified Eagle Media (DMEM, Gibco 12430) supplemented with 10% Fetal Bovine Serum, heat inactivated (FBS HI, Gibco 10082), 1× non-essential amino acids (NEAA, Gibco 11140), 1 mM sodium pyruvate (Gibco 11360) and 1× Anti-Anti (Gibco 15240). MCF-7 cells were maintained in Minimum Essential Media (MEM) (Gibco 11095) supplemented with 10% Fetal Bovine Serum, heat inactivated (FBS HI, Gibco 10082), 1× non-essential amino acids (NEAA, Gibco 11140), 1 mM sodium pyruvate (Gibco 11360), 1× Anti-Anti (Gibco 15240) and 10 μg/mL human insulin (Sigma I 9278). MDA-MB-361 cells were maintained in Dulbecco's Modified Eagle Media (DMEM, Gibco 12430) supplemented with 20% Fetal Bovine Serum, heat inactivated (FBS HI, Gibco 10082), 1× non-essential amino acids (NEAA, Gibco 11140), 1 mM sodium pyruvate (Gibco 11360) and 1× Anti-Anti (Gibco 15240). SKBR3 cells were maintained in McCoy's 5A (Gibco 16600) supplemented with 10% Fetal Bovine Serum, heat inactivated (FBS HI, Gibco 10082), and 1× Anti-Anti (Gibco 15240). Cultures were maintained in a humidified incubator at 37° C. under 5% CO2/95% air.
For compound testing in 0% FBS, MDA-MB-453, MCF-7 and SKBR3 cells were seeded at a density of 1.5×10^4, 1.0×10^4, and 1.0×10^4 cells, respectively, per well in white 384-well plates in 20 μl of Minimum Essential Media (MEM) assay media with 1×NEAA, 1 mM sodium pyruvate, and 1 μg/mL human insulin (Sigma 19278) (Assay Medium); while MDA-MB-361 cells were seeded at a density of 1.5×10^4 per well in white 384-well plates in 20 μl Assay Medium without insulin. After plating, cells were allowed to attach overnight. Compounds dissolved in 10 mM stock solutions in DMSO were serially diluted 1:3 in DMSO to generate a 10-point dilution series and plated using an acoustic liquid handler system (Echo 550 Series Liquid Handler, Labcyte). A 5× intermediate compound dilution plate in MEM with 1×NEAA and 1 mM sodium pyruvate (150 μM starting compound concentration in 1.5% DMSO) was then prepared. Five μl of the intermediate serially diluted compounds were added to the cell plate to final concentrations ranging from […] in 0.3% DMSO. 0.3% DMSO alone was used to establish the maximum (MAX) signal and GDC-0032 at a final concentration of 1 μM was used as a reference compound for the minimum (MIN) signal. After 3 hours treatment, the medium was removed, and the cells were lysed in 10 μL of 1× SureFire Lysis buffer with shaking for 10 minutes at room temperature. The Acceptor Mix (Reaction Buffer 1+Reaction Buffer 2+Activation Buffer+SureFire Ultra Acceptor Beads) was prepared by diluting Activation buffer 25-fold in combined Reaction Buffer 1 and Reaction Buffer 2.
The Acceptor beads were diluted 50-fold in the combined Reaction Buffers. Five μL of Acceptor Mix was added to each well, the plate was sealed and covered with foil and incubated for 1 hour at room temperature. The Donor Mix (dilution buffer+SureFire Ultra Donor Beads) was prepared by diluting Donor Beads 50-fold in dilution buffer. Five μL of the Donor Mix was added to each well and the plate sealed and covered with foil and incubated for 1-2 hours at room temperature in the dark. The plates were read on a Neo2 plate reader instrument from Biotek using standard AlphaLisa settings.
Compounds were tested in duplicate and the % inhibition at each compound concentration was used to generate two dose response curves. One IC50 was generated using average % inhibition at each compound concentration. […]

Row | Structure (SMILES) | microsomal CLint at 1 μM [1] [µL/min/mg] | IC50 [2] [nM]
1 | CCn1cc2cc(-c3oc4c([C@@H](C)Oc5ccc(Cl)nc5C(N)=O)cc(C)cc4c(=O)c3C)ccc2n1 [Example 75C, 6-Chloro-3-[(1R)-1-[2-(2-ethylindazol-5-yl)-3,6-dimethyl-4-oxo-chromen-8-yl]ethoxy]pyridine-2-carboxamide] | < 50 | < 500
2 | Cc1cc([C@@H](C)Oc2ccc(Cl)cc2S(N)(=O)=O)c2oc(-c3cnn(C)c3)c(C)c(=O)c2c1 [Example 99C, 5-Chloro-2-[(1R)-1-[3,6-dimethyl-2-(1-methylpyrazol-4-yl)-4-oxo-chromen-8-yl]ethoxy]benzenesulfonamide] | < 50 | < 500
3 | Cc1cc([C@@H](C)Oc2ccc(Cl)cc2S(N)(=O)=O)c2oc(C3CC3)c(C)c(=O)c2c1 [Example 101C, 5-Chloro-2-[(1R)-1-(2-cyclopropyl-3,6-dimethyl-4-oxo-chromen-8-yl)ethoxy]benzenesulfonamide] | < 50 | < 500
4 | Cc1cc([C@@H](C)Oc2ccc(Cl)nc2S(N)(=O)=O)c2oc(-c3cnc4ccoc4c3)c(C)c(=O)c2c1 [Example 22C, 6-Chloro-3-[(1R)-1-(2-furo[3,2-b]pyridin-6-yl-3,6-dimethyl-4-oxo-chromen-8-yl)ethoxy]pyridine-2-sulfonamide] | < 50 | < 500
5 | Cc1cc([C@@H](C)Oc2ccc(Cl)nc2C(N)=O)c2oc(-c3cnc4ccoc4c3)c(C)c(=O)c2c1 [Example 80C, 6-Chloro-3-[(1R)-1-(2-furo[3,2-b]pyridin-6-yl-3,6-dimethyl-4-oxo-chromen-8-yl)ethoxy]pyridine-2-carboxamide] | < 50 | < 500
6 | Cc1cc([C@@H](C)Oc2ccc(Cl)nc2S(N)(=O)=O)c2oc(-c3cnn(C[C@@H](C)O)c3)c(C)c(=O)c2c1 [Example 4B, 6-Chloro-3-[(1R)-1-[2-[1-[(2R)-2-hydroxypropyl]pyrazol-4-yl]-3,6-dimethyl-4-oxo-chromen-8-yl]ethoxy]pyridine-2-sulfonamide] | < 50 | < 500
7 | Cc1cc([C@@H](C)Oc2ccc(Cl)nc2C(N)=O)c2oc(-c3cnc(OC(C)C)nc3)c(C)c(=O)c2c1 [Example 79C, 6-Chloro-3-[(1R)-1-[2-(2-isopropoxypyrimidin-5-yl)-3,6-dimethyl-4-oxo-chromen-8-yl]ethoxy]pyridine-2-carboxamide] | < 50 | < 500
8 | Cc1cc([C@@H](C)Oc2ccc(F)nc2S(N)(=O)=O)c2oc(-c3ccccc3)c(C)c(=O)c2c1 [Example 74C, 3-[(1R)-1-(3,6-Dimethyl-4-oxo-2-phenyl-chromen-8-yl)ethoxy]-6-fluoro-pyridine-2-sulfonamide] | < 50 | < 500
9 | Cc1cc([C@@H](C)Oc2ccc(Cl)nc2C(N)=O)c2oc(-c3ccc4nn(C)cc4c3)c(C)c(=O)c2c1 [Example 11A, 6-Chloro-3-[(1R)-1-[3,6-dimethyl-2-(2-methylindazol-5-yl)-4-oxo-chromen-8-yl]ethoxy]pyridine-2-carboxamide] | < 50 | < 500
10 | Cc1cc([C@@H](C)Oc2ccc(Cl)nc2S(N)(=O)=O)c2oc(-c3cnn(CC(C)(C)O)c3)c(C)c(=O)c2c1 [Example 2B, 6-Chloro-3-[(1R)-1-[2-[1-(2-hydroxy-2-methyl-propyl)pyrazol-4-yl]-3,6-dimethyl-4-oxo-chromen-8-yl]ethoxy]pyridine-2-sulfonamide] | < 50 | < 500
11 | Cc1cc([C@@H](C)Oc2ccc(F)cc2S(N)(=O)=O)c2oc(-c3cnn(C)c3)c(C)c(=O)c2c1 [Example 105C, 2-[(1R)-1-[3,6-Dimethyl-2-(1-methylpyrazol-4-yl)-4-oxo-chromen-8-yl]ethoxy]-5-fluoro-benzenesulfonamide] | < 50 | < 500
